Target in one test: not listed separately
As to the kind of experiment: Inhibition of [125I]asialoorosomucoid binding to rabbit hepatic ASGPR1. More on the design: species or system Oryctolagus cuniculus.
As for `OC[C@H]1O[C@@H](O)[C@H](O)[C@@H](O)[C@H]1O` [b-D-GALACTOSE], the half-inhibitory concentration (IC50) was 1.7 mM. Still for that read-out and setting: for `OC[C@H]1O[C@@H](O)[C@H](O)[C@@H](O)[C@@H]1O` [beta-D-Glucose] the value was 60 mM.

The target of another test is T1, Asialoglycoprotein receptor 1 (Homo sapiens) (UniProt P07306).
T1 sequence (whole entry): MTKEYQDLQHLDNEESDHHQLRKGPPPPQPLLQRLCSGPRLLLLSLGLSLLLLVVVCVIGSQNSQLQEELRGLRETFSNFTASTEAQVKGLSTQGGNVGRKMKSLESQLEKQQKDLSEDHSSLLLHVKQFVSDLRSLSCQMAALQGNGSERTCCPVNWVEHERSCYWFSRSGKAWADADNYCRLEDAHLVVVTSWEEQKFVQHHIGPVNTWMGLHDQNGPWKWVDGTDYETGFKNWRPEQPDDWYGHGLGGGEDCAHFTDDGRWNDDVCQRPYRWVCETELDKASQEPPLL
As to the kind of experiment: Inhibition of D-GalNAc binding to human recombinant ASGPR1 carbohydrate recognition domain expressed in Escherichia coli AD494 by competitive NMR binding assay relative to D-GalNAc.
On to `N#Cc1ccc(OCc2cn([C@H]3CO[C@H](CO)[C@H](O)[C@@H]3O)nn2)cc1`, for which the relative binding affinity (RBA) is 1.9.

The next test concerns the target T1, Asialoglycoprotein receptor 1 (Homo sapiens). As to the kind of experiment: Inhibition of D-GalNAc-PAA binding to human recombinant ASGPR1 carbohydrate recognition domain expressed in Escherichia coli AD494 by competitive solid-phase binding assay relative to D-GalNAc.
As for `O=[N+]([O-])c1ccc(OCc2cn([C@H]3CO[C@H](CO)[C@H](O)[C@@H]3O)nn2)cc1`, the Ratio IC50 was 0.8. Still for that read-out and setting: for `CN1CCN(c2ccc(OCc3cn([C@H]4CO[C@H](CO)[C@H](O)[C@@H]4O)nn3)cc2)CC1` the value was 0.9; for `O=S(=O)(Nc1ccc(OCc2cn([C@H]3CO[C@H](CO)[C@H](O)[C@@H]3O)nn2)cc1)C(F)(F)F`, “Insoluble”; for `[N-]=[N+]=N[C@H]1CO[C@H](CO)[C@H](O)[C@@H]1O`, 13.7.

Regarding `O=C(O)c1ccc(OCc2cn([C@H]3CO[C@H](CO)[C@H](O)[C@@H]3O)nn2)cc1`, the Ratio IC50 is 8.7. The same measure, in the same setting: the figure for `N#Cc1ccc(OCc2cn([C@H]3CO[C@H](CO)[C@H](O)[C@@H]3O)nn2)cc1` is 0.5.

`OC[C@H]1OC[C@H](n2cc(COc3ccccc3)nn2)[C@@H](O)[C@H]1O`: the Ratio IC50 was 1.1.

`OC[C@H]1OC[C@H](n2cc(COc3c(F)c(F)c(F)c(F)c3F)nn2)[C@@H](O)[C@H]1O`: the Ratio IC50 was found to be 1.4. On the same count and under the same terms, for `CC(=O)N[C@H]1C(O)O[C@H](CO)[C@H](O)[C@@H]1O` (some centres not stated) the value was 1.
